Key:
PI3K-β (p110β/p85α) = molecular target: T1, PI3K-β (p110β/p85α) (Homo sapiens, UniProt P42338); experiment: PI3K isoforms biochemical assay (HTRF), PI3K-β; details: read-out: PI3Kβ IC50
T1 construct: purchased Millipore #14-603
Description: (§1) PI3Kα (p110α/p85α), PI3K-δ (p110δ/p85α), and PI3K-γ (p110γ) were purchased from Invitrogen (PV4789, PV 5274, and PV4787, respectively). PI3K-β (p110β/p85α) was obtained from Millipore (#14-603). The kinase activity was measured with the commercial PI3-kinase (human) HTRF™ assay available from Millipore (#33-017), following the manufacturer recommendations. The final enzyme concentration in the assay were 100 pM for PI3K-α and PI3K-δ, 500 pM for PI3K-β, and 4 nM for PI3K-γ. […] The enzyme was preincubated with the inhibitor and with 10 μM of PIP2 for 5 min. The enzymatic reaction was started by addition of ATP at 50 times the Km. The incubation was kept at 37 °C for 60 min. Stop solution and detection mix were added sequentially to the wells and plates were incubated 3 h in the dark at 25 °C. HTRF counts were measured in an EnVision reader (Perkin Elmer) using the recommended settings. Values were normalized against the control activity included for the enzyme (100% PI3 kinase activity, without compound). These values were plotted against the inhibitor concentration and were fit to a sigmoid dose-response curve by using Activity base software from IDBS.

PI3K-δ (p110δ/p85α) = molecular target: T2, PI3K-δ (p110δ/p85α) (Homo sapiens, UniProt O00329); experiment: PI3K isoforms biochemical assay (HTRF), PI3K-δ; details: read-out: PI3Kδ IC50
T2 construct: purchased Invitrogen PV 5274
T2 sequence (O00329 whole entry, canonical isoform): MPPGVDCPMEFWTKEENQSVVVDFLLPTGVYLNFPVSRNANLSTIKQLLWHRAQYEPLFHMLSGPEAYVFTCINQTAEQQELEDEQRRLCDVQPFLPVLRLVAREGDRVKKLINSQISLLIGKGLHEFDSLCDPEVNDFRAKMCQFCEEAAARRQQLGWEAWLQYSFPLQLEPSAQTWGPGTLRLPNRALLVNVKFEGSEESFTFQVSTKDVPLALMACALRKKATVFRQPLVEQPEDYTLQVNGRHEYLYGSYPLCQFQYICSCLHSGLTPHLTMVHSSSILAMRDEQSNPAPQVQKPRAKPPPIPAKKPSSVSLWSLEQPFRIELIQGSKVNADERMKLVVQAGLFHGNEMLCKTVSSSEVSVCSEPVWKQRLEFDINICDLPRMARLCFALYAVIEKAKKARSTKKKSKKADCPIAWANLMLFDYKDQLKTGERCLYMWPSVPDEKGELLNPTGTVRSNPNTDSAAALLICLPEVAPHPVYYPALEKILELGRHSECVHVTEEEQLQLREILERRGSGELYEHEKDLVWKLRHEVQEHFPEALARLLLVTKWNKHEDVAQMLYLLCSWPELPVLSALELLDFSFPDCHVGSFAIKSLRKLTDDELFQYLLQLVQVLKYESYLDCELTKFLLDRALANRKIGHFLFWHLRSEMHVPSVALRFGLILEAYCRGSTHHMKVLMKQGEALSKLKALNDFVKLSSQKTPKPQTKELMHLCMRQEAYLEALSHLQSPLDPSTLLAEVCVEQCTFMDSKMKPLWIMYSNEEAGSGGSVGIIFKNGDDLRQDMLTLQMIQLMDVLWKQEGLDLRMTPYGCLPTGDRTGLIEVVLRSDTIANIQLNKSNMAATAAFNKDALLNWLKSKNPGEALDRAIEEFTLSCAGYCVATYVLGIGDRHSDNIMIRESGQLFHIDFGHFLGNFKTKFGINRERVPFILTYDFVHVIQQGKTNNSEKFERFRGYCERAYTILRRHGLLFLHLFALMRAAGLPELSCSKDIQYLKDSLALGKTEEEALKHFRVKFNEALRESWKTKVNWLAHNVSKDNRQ
T2 sequence (P27986 whole entry partner, canonical isoform): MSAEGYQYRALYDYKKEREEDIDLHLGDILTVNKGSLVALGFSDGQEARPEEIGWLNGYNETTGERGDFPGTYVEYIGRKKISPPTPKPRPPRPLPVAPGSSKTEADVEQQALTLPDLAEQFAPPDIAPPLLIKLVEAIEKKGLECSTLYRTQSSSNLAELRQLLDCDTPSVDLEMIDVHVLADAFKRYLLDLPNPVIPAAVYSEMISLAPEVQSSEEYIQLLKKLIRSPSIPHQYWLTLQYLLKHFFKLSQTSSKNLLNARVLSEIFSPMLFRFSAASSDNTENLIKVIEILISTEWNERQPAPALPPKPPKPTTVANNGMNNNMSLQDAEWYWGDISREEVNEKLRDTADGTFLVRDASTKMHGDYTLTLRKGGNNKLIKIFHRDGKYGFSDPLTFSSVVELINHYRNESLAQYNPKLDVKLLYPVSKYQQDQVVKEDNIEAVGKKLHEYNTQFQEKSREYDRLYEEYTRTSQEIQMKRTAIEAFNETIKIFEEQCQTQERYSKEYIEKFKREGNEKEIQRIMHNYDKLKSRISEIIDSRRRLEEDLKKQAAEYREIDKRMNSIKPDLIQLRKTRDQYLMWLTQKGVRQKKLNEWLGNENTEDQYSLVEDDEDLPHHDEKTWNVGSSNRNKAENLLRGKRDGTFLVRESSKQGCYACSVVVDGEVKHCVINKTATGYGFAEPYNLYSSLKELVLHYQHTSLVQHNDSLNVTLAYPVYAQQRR
Description: as §1

[1] = tested on: TRF1 foci in p53−/− mouse embryo fibroblasts (MEF); experiment: TRF1 foci immunofluorescence in p53−/− MEFs; type: cell-based; details: 10 μM, 24 h
Description: We then checked whether PI3Kα/AKT inhibition also leads to decreased TRF1 foci in an additional cell type to CHA-9.3 cells. Thus, we used p53 ^−/− mouse embryo fibroblasts (MEF). We treated these MEFs either with the AKT inhibitor MK-2206 or with ETP-47037 at 10 μM concentration for 24 h and analyzed TRF1 foci by immunofluorescence.
TRF1 immunofluorescence of TRF1 was performed in lung tumor-derived cell line (CHA9.3) and in MEFs[39]. A rat monoclonal antibody against mouse TRF1 developed by the Monoclonal antibody unit at CNIO was used to detect endogenous TRF1 (1:500). GFP-TRF1 fluorescence was directly measured in cells fixed in paraformaldehyde. For quantification of TRF1 foci intensity, pictures of fixed cells were automatically acquired from each well by the Opera HCS system (Perkin Elmer). Sixty images of random fields per well, with a 40× magnification lens, were taken under non-saturating conditions. At least 1 × 10^3 cells were analyzed for each well. Briefly, images were segmented using the DAPI staining to generate masks matching cell nuclei from which-TRF1 foci were analyzed.

[2] = tested on: TRF1 protein in p53−/− MEFs nuclear extracts; experiment: Western blot of nuclear TRF1 in p53−/− MEFs; type: cell-based, mouse; details: 10 μM
Description: Blots were incubated with the primary antibodies anti-TRF1 1:500 (home-made monoclonal Rat, CNIO; TRF-78, ABCAM, ab10579) and with anti-SMC1 1:2000 (Bethyl Laboratories #A300-055A) as loading control. For nuclear protein preparation, the Nuclear/Cytosol Fractionation Kit (K266-100, BioVision) was used according to the manufactures protocol.

[3] = tested on: aggressive lung cancer in mice; parameters: method as in PMID 25971796; details: mice with aggressive lung cancer; cited from earlier work

T1 sequence (P42338 whole entry, canonical isoform): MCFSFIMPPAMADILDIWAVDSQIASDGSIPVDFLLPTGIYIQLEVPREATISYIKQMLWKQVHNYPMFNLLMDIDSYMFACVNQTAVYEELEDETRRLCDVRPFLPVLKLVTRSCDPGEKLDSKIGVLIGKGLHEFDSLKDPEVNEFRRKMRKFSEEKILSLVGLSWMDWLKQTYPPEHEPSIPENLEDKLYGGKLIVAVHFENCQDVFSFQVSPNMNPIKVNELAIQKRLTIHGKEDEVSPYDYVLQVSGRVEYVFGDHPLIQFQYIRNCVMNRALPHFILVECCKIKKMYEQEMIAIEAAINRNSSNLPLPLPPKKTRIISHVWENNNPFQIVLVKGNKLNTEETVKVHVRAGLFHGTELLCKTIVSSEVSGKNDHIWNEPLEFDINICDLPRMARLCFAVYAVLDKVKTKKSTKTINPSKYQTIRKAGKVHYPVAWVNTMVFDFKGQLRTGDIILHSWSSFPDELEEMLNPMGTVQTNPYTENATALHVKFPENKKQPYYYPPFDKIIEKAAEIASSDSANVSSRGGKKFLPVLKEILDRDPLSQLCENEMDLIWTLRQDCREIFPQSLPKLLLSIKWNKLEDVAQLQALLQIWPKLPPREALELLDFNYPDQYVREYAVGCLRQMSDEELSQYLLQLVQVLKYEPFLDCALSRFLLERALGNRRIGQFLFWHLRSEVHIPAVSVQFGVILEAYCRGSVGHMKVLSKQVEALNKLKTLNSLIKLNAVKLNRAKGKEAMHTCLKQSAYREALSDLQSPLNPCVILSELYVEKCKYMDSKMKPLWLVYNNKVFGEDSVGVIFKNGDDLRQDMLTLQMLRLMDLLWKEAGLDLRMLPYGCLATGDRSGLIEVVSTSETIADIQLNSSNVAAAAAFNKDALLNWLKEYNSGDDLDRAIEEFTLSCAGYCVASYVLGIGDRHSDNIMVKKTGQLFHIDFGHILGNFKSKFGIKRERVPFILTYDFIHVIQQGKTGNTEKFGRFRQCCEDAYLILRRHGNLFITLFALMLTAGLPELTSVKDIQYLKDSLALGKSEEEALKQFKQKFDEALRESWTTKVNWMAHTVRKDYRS
T1 sequence (P27986 whole entry partner, canonical isoform): as the sequence (P27986 whole entry partner, canonical isoform) above

CS(=O)(=O)N1CCN(Cc2cc3c(N4CCOCC4)nc(-c4cnc(N)nc4)cn3n2)CC1 [ETP-47037]
IC50 (PI3K-β (p110β/p85α)): 0.0492 µM
IC50 (PI3K-δ (p110δ/p85α)): 0.00713 µM
Reduction in TRF1 foci intensity [1]: 34%
Total nuclear TRF1 levels compared to DMSO [2]: decreased
Telomere TRF1 foci in vivo [3]: significantly decreased
Telomeric DNA damage in vivo [3]: induced telomeric DNA damage
Tumor growth as compared to non-treated mice [3]: blocked tumor growth
